Here are results for 1 compound from patent US20190343801A1, “COMPOSITIONS AND METHODS FOR CONTROLLING NATURAL KILLER CELL ACTIVATION AND FUNCTION” (BAR ILAN UNIVERSITY, priority 2017, published 2019).

Molecules are shown by their SMILES. Where a name gives a salt, the structure may show the parent alone.

This experiment deals with SHP-1 conformation. Put plainly: YFP-SHP1-CFP FRET sensor analysis of SHP-1 conformation in YTS cells. In kind it is cell-based. The conditions noted are these: inhibitory NKIS (221-Cw4), untreated 11.5±2.5%; 1 μM JAS, 25 μM Y-27. As for the experimental part: Active “open” conformation of SHP-1 results in a large distance between the two fluorescent proteins with no FRET signal. The inactivated, “closed”, conformation of SHP-1 brings the N′- and C′-termini into proximity resulting in high FRET efficiency.
YTS-2DL1 cells transiently expressing YFP-SHP1-CFP were treated with 25 μM Y-27 or left untreated. Cells were incubated on slides with 221-Cw4 or Cw7 target cells expressing mCherry, following 5 min of conjugation at 37° C., cells were treated with 1 μM JAS, and incubated for 5 min before fixation. FRET analysis was performed (see Experimental procedures). […]
FRET was measured by the donor-sensitized acceptor fluorescence technique. Briefly, three sets of filters were used: one optimized for donor fluorescence (excitation, 458 nm, and emission, 465 to 510 nm), a second for acceptor fluorescence (excitation, 514 nm, and emission, 530 to 600 nm), and a third for FRET (excitation, 458 nm; emission, 530 to 600 nm).
FRET correction was performed as previously described. In brief, the non-FRET components were calculated and removed using calibration curves derived from images of single-labeled CFP- or YFP-expressing cells. […] A calibration curve was derived that defined the amount of CFP fluorescence seen in the FRET image as a function of the fluorescence in the CFP image. […]

The compound `C[C@@H](N)C1CCC(C(=O)Nc2ccncc2)CC1` (stereo partly drawn) [Formula Y-27, 4-[(1R)-1-aminoethyl]-N N-4-pyridinyl-trans-cyclohexanecarboxamide, dihydrochloride] came in with an FRET efficiency of 23.2±1.3%.
